Assay results taken from article PMC3018327 (Nature immunology, 2010).

How the values were obtained:
HLA-DM = HLA-DM (Homo sapiens, UniProt P28067+P28068, N110D/N191D); test: SPR; details: complexes 5 μM injected 2 min, pH 5.35, 15 μl/min, 25 °C, Fig. 4d-f
DM-DR2 complex = test: SPR peptide-induced dissociation of the complex of DM and empty DR2; format: binding, human; details: SPR stage 3, peptide 1 μM, pH 5.35, 30 °C; Fig. 1e
DR1 = details: cited from earlier work
DR1 linked to DM = details: leucine zipper dimerization domains attached to DMβ and DRβ chains; cited from earlier work
DR4 = details: cited from earlier work

HLA-DM, sequence (P28067 27-233 N191D): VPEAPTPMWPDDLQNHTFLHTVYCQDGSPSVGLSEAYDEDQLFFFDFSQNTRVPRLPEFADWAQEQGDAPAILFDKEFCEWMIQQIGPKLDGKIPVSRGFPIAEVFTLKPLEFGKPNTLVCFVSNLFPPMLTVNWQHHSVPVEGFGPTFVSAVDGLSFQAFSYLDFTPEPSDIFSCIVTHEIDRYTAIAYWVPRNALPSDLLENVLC
HLA-DM, sequence (P28068 19-218 N110D): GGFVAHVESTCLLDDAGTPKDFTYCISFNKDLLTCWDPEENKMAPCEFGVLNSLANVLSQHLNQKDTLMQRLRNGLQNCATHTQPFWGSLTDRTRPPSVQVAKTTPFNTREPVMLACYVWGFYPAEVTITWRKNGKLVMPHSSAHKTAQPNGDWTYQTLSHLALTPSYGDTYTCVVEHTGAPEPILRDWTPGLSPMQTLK

DM binding of DR1 complexes with disulfide-linked HA6 or HA3 peptides (HLA-DM) | Substance | other results
not sufficient for DM binding | KYVKQNCLKLAT [HA6 P-1–P11] | 
strong DM binding | VKQNCLKLAT [HA6 P2–P11] | 
not sufficient for DM binding | YVKQNCLKLAT [HA6 P1–P11] | 

Continued, substance first:

Substance | DM binding of DR1 complexes with disulfide-linked HA6 or HA3 peptides (HLA-DM) | other results
CQNTLKLAT [HA3 P3 P11] | appeared to slow DM binding | 
MBP85-99: high-affinity peptide from myelin basic protein (amino acids 85–99) (PGSRPHLIRLFSRDA; UniProt P02686 85-99, looked up, fragment) |  | peptide-induced dissociation of DR2 from DM (DM-DR2 complex): induced dissociation of DR2 from DM
Me-YVCQNTLKLAT [HA3 P1me–P11] | did not permit DM binding | 
PKAVKQNCLKLAT [HA6 P1A] | only low amounts of DM binding | 
PVSKMRMATPLLMQA [CLIP] |  | affinity of CLIP for DR1 (DR1): high affinity; t1/2 of peptide dissociation from DR1 forcibly linked to DM (DR1 linked to DM): 10 s; affinity of CLIP for DR4 (DR4): very low affinity
VCQNTLKLAT [HA3 P2–P11] | rapid binding | 
